From patent US20210128537A1, “T-TYPE CALCIUM CHANNEL MODULATORS AND METHODS OF USE THEREOF” (Praxis Precision Medicines, inc., priority 2016, published 2021)

Tests used:
[1] = system: GAERS nRT T-type Ca2+ channel currents (mixed CaV3.2/CaV3.3 current); experiment: Thalamic slice whole-cell voltage-clamp recordings of nRT T-type Ca2+ channel currents; assay type: cell-based, rat; set-up: dose or concentration left out as unconfirmed; conditions: and wash off
[2] = system: GAERS nRT neuron; experiment: Thalamic slice current-clamp recordings, burst firing in nRT neurons; assay type: cell-based, rat; conditions: 1 mM Z944; for voltage response to depolarizing current, low threshold spiking: in 600 nM TTX
[3] = system: post-SE rats; experiment: Kainic acid induced post-status epilepticus model, video-EEG seizure analysis; assay type: in vivo, rat
Protocol: Pumps were filled with either Z944 to deliver a daily dose of 60 mg/kg, levetiracetam to deliver a daily dose of 200 mg/kg or vehicle. For the drug tolerability study, osmotic pumps continuously either Z944, levetiracetam or vehicle for 7 days and for the post-SE study osmotic pumps delivered continuously the different treatments for 28 days.
FIG. 11 summarizes the different methods used on this experimental paradigm.
Animals were implanted with subdural EEG recording electrodes and one week after surgery, the animals were connected using cables that allowed them free movement around their cage. A repeated low dose KA administration protocol was used. Rats were injected i.p. with an initial dose of KA 7.5 mg/kg plus 3 ml of normal saline to prevent dehydration. Animals were monitored for 45 minutes for EEG and behavioural seizures based on the Racine scale. […] This was repeated up to 2 times every 45 minutes. An animal was eliminated from the experiment if it didn't show a stable self-sustained SE after a maximum KA total dose of 15 mg/kg. Two sham groups were treated identically but received saline injections instead of KA. After four hours of sustained electroencephalographic and behavioural seizures the animals were randomly allocated to one of the five treatment groups: sham+vehicle (n=6), sham+Z944 (n=6), post-SE+vehicle (n=8), post-SE+Z944 (n=8), post-SE+levetiracetam (n=9).
Animals were anesthetized and implanted with subcutaneous osmotic pumps containing either vehicle Z944 (60 mg/kg/day), or levetiracetam (200 mg/kg/day) that delivered the treatment continuously for 4 weeks. Immediately after the pump implantation, SE was stopped with diazepam (5 mg/kg/dose).
vEEG recordings commenced at least 4 h prior the induction of SE to provide baseline recordings. The video-EEG recordings continued for the whole duration of the treatment period, i.e. four weeks after the termination of the SE. […] EEG analysis was performed in a blinded manner and confirmed by two different observers. All EEG recordings were visually and manually annotated using Profusion 3 software. A seizure was defined as an episode of rhythmic spiking activity that was three times the baseline amplitude and a frequency >5 Hz that lasted at least 10 s. The end of a seizure was determined as the last spike. The average number of seizures per day, average seizure duration and seizure class (severity) were analysed.

`CC(C)(C)NC(=O)CN1CCC(CNC(=O)c2cc(F)cc(Cl)c2)CC1` [Z944] was tested, and the “reversibility of inhibition of GAERS nRT T-type Ca2+ channel currents” value [1] was “nonreversible inhibition”, the “voltage response to depolarizing current, burst firing” value ([2]; +80 pA (threshold for burst firing in control)) was “subthreshold for firing” and the “voltage response to depolarizing current, low threshold spiking” value ([2]; +100 pA) was “subthreshold for low-threshold spiking”. For the same compound, the “voltage response to depolarizing current, burst firing” value ([2]; +120 pA (suprathreshold for burst firing in control)) was “threshold for tonic firing”, the “voltage response to depolarizing current, low threshold spiking” value ([2]; +190 pA (suprathreshold in control)) was “still subthreshold” and the “seizures on EEG after drug washout (seizures per day, duration, severity)” value ([3]; 60 mg/kg/day for 4 weeks, EEG after 4 weeks from drug washout) was “Anti-Epileptogenic”. For the same compound, the “seizures on EEG during treatment (seizures per day, duration, severity)” value ([3]; 60 mg/kg/day, during the 4 weeks of continuous treatment after SE) was “Anti-Epileptogenic Effects”, the “number of seizures in each animal that developed seizures” value ([3]; in two weeks of vEEG after drug washout) was “one” and the “neurological adverse effects after prolonged treatment” value ([3]; osmotic pump 4 weeks, Z944 60 mg/kg/day, levetiracetam 200 mg/kg/day) was “only transient and minor neurological adverse effects”. For the same compound, the “treated animals that developed seizures” value ([3]; two weeks of vEEG after 4 weeks drug washout, n=8) was “two of the eight”.
